According to ChEMBL document CHEMBL6177998, “Rational Design of Dual Degraders by Incorporating Molecular Glue Structural Features into PROTAC Degraders” (J Med Chem, 2025):
Activity calls are given as the source filed them. The calls are words filed in the database; no cut-off is given here.

How the values were obtained:
[1] = target: Protein cereblon/Zinc finger protein Helios (Homo sapiens) (UniProt Q96SW2+Q9UKS7); assay: Molecular glue activity at CRBN/IKZF2 in human 22Rv1 cells assessed as induction of IKZF2 degradation at 1 uM incubated for 6 hrs by Western blot analysis; assay type: cell-based
Chain of Protein cereblon/Zinc finger protein Helios (Homo sapiens) (Q96SW2 whole entry, looked up): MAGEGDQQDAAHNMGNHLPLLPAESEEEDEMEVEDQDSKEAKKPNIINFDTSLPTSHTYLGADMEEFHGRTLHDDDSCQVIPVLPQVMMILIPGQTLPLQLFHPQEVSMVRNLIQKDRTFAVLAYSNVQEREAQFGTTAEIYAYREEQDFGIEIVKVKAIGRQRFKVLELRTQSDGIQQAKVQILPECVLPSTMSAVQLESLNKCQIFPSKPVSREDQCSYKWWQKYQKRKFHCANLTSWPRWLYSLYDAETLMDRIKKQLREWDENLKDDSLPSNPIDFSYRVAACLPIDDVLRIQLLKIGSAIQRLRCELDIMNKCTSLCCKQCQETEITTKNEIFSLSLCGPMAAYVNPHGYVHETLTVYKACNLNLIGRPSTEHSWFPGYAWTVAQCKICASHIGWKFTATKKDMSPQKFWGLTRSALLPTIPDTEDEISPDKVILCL
Chain of Protein cereblon/Zinc finger protein Helios (Homo sapiens) (Q9UKS7 whole entry, looked up): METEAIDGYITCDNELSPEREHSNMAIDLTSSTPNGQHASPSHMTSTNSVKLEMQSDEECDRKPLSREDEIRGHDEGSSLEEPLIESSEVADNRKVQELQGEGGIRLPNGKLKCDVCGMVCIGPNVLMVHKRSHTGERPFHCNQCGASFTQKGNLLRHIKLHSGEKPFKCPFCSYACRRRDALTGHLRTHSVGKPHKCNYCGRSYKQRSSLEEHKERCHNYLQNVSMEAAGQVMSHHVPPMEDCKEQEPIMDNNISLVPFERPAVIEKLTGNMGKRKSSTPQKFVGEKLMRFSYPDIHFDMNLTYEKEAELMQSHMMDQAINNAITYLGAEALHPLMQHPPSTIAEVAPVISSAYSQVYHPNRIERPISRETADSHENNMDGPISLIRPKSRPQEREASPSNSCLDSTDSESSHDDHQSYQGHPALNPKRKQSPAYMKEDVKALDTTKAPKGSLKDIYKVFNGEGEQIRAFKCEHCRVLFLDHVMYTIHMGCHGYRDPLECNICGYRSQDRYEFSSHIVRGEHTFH

[2] = target: T1, Protein cereblon/Androgen receptor (Homo sapiens, UniProt P10275+Q96SW2); assay: PROTAC activity at CRBN/AR in human VCaP cells assessed as induction of AR degradation by measuring maximal efficacy incubated for 24 hrs by Western blot analysis relative to control; assay type: cell-based
T1 sequence (P10275 whole entry, looked up, canonical isoform): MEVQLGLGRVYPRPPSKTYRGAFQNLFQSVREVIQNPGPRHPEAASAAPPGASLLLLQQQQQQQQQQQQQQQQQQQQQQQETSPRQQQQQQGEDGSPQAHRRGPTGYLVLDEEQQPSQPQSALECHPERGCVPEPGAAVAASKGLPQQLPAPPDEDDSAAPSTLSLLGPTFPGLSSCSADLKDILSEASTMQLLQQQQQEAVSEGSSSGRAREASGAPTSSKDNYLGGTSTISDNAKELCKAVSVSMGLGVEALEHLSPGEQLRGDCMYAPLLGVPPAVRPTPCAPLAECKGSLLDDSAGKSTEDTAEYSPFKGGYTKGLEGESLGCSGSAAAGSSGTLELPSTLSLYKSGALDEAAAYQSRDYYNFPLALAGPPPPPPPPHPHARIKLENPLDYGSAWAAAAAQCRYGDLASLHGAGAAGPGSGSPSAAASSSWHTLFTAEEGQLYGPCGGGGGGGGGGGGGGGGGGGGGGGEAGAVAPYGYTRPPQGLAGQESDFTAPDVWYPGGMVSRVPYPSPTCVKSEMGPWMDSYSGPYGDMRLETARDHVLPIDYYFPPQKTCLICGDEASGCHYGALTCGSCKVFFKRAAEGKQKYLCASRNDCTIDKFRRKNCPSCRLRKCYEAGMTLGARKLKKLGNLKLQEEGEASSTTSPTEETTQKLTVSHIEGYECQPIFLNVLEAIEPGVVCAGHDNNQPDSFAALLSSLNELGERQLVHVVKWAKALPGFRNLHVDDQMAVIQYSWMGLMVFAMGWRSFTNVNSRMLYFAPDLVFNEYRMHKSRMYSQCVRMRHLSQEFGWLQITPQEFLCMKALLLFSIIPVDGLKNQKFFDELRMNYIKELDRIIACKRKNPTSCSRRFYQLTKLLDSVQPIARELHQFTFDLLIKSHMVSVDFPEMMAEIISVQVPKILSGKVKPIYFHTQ
T1 sequence (Q96SW2 whole entry, looked up, canonical isoform): as the sequence (Q96SW2 whole entry, looked up) above

[3] = tested on: Protein cereblon/Androgen receptor (Homo sapiens), P10275+Q96SW2 [UNDEFINED MUTATION]; assay: PROTAC activity at CRBN/Androgen receptor splice variant 7 in human VCaP cells assessed as induction of AR-V7 degradation at 0.1 uM incubated for 24 hrs by Western blot analysis relative to control; assay type: cell-based
Chain of Protein cereblon/Androgen receptor (Homo sapiens), P10275+Q96SW2 [UNDEFINED MUTATION] (P10275 whole entry, looked up, change not shown, canonical isoform): as the sequence (P10275 whole entry, looked up, canonical isoform) above
Chain of Protein cereblon/Androgen receptor (Homo sapiens), P10275+Q96SW2 [UNDEFINED MUTATION] (Q96SW2 whole entry, looked up, change not shown, canonical isoform): as the sequence (Q96SW2 whole entry, looked up) above

[4] = target: T2, Protein cereblon/Eukaryotic peptide chain release factor GTP-binding subunit ERF3A (Homo sapiens, UniProt Q96SW2+P15170); assay: Molecular glue activity at CRBN/GSPT1 in human VCaP cells assessed as induction of GSPT1 degradation at 20 nM measured after 6 hrs by Western blot analysis; assay type: cell-based
T2 sequence (P15170 whole entry, looked up): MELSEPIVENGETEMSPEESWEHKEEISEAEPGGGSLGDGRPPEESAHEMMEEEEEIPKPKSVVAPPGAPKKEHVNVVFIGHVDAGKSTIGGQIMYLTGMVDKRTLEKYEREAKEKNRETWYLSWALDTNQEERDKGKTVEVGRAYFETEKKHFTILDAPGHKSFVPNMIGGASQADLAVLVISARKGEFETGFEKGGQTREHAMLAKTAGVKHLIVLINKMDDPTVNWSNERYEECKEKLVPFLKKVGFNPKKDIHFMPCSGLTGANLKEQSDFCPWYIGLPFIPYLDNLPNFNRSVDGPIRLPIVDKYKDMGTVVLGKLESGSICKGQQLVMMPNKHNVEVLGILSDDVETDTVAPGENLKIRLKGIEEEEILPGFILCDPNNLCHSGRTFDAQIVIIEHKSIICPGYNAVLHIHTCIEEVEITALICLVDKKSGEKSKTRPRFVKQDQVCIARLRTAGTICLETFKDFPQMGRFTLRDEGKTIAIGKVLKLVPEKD
T2 sequence (Q96SW2 whole entry, looked up): as the sequence (Q96SW2 whole entry, looked up) above

[5] = target: T1, Protein cereblon/Androgen receptor; assay: PROTAC activity at CRBN/AR in human 22Rv1 cells assessed as induction of AR degradation at 50 uM preincubated with thalidomide followed by compound addition and measured after 12 hrs by Western blot analysis; assay type: cell-based
[6] = target: T2, Protein cereblon/Eukaryotic peptide chain release factor GTP-binding subunit ERF3A; assay: Molecular glue activity at CRBN/GSPT1 in human 22Rv1 cells assessed as induction of GSPT1 degradation at 20 nM incubated for 6 hrs by Western blot analysis (reference value: 0 %); assay type: cell-based
[7] = target: Cereblon/Ikaros (Homo sapiens) (UniProt Q96SW2+Q13422); assay: Molecular glue activity at CRBN/IKZF1 in human 22Rv1 cells assessed as induction of IKZF1 degradation at 1 uM incubated for 6 hrs by Western blot analysis; assay type: cell-based
22Rv1 = assay: Induction of GSPT1 degradation in human 22Rv1 cells transfected with CRBN siRNA at 30 nM incubated for 24 hrs by Western blot analysis; assay type: cell-based
[8] = target: T1, Protein cereblon/Androgen receptor; assay: PROTAC activity at CRBN/AR in human 22Rv1 cells assessed as decrease in FKBP5 mRNA level at 1 to 3 nM incubated for 24 hrs by qRT-PCR analysis; assay type: cell-based; conditions: dose 1-3 nM
CWR22R = assay: Cell cycle arrest in human 22Rv1 cells assessed as accumulation of cells at G1 phase at 10 nM incubated for 24 hrs by flow cytometric analysis (reference value: 49.7 %); assay type: functional
[9] = Antiproliferative activity against human Enzalutamide-resistant VCaP cells assessed as cell growth inhibition incubated for 72 hrs by Celltiter-lumi luminescent cell viability assay; assay type: functional, cell-based
[10] = target: T1, Protein cereblon/Androgen receptor; assay: PROTAC activity at CRBN/AR in human VCaP cells assessed as induction of AR degradation at 0.01 uM incubated for 24 hrs by Western blot analysis relative to control; assay type: cell-based
[11] = target: T1, Protein cereblon/Androgen receptor; assay: PROTAC activity at CRBN/AR in human 22Rv1 cells assessed as induction of AR degradation at 20 nM incubated for 1 hrs by Western blot analysis (reference value: 0 %); assay type: cell-based
[12] = tested on: Protein cereblon/Androgen receptor (Homo sapiens), P10275+Q96SW2 [UNDEFINED MUTATION]; assay: PROTAC activity at CRBN/Androgen receptor splice variant 7 in human 22Rv1 cells assessed as induction of AR-V7 degradation at 20 nM incubated for 18 hrs by Western blot analysis (reference value: 0%); assay type: cell-based
[13] = target: T2, Protein cereblon/Eukaryotic peptide chain release factor GTP-binding subunit ERF3A; assay: Molecular glue activity at CRBN/GSPT1 in human 22Rv1 cells assessed as induction of GSPT1 degradation at 20 nM incubated for 1 hrs by Western blot analysis (reference value: 0 %); assay type: cell-based
[14] = target: T1, Protein cereblon/Androgen receptor; assay: PROTAC activity at CRBN/AR in human LNCaP cells assessed as decrease in TMPRSS2 protein level incubated for 24 hrs by Western blot analysis; assay type: cell-based; conditions: dose 1-100 nM
[15] = target: T1, Protein cereblon/Androgen receptor; assay: PROTAC activity at CRBN/AR in human VCaP cells assessed as induction of AR degradation at 50 nM preincubated with MG132 followed by compound addition and measured after 12 hrs by Western blot analysis; assay type: cell-based
[16] = target: T1, Protein cereblon/Androgen receptor; assay: PROTAC activity at CRBN/AR in human 22Rv1 cells assessed as induction of AR degradation at 50 nM preincubated with MLN4924 followed by compound addition and measured after 12 hrs by Western blot analysis; assay type: cell-based
[17] = tested on: Protein cereblon/Androgen receptor (Homo sapiens), P10275+Q96SW2 [UNDEFINED MUTATION]; assay: PROTAC activity at CRBN/Androgen receptor splice variant 7 in human VCaP cells assessed as induction of AR-V7 degradation at 20 nM by Western blot analysis; assay type: cell-based; conditions: time 1-36 hrs
[18] = Half-life in male ICR mouse at 2 mg/kg, iv by LC-MS/MS analysis; assay type: ADME, organism-based; conditions: in vivo
[19] = target: T1, Protein cereblon/Androgen receptor; assay: In vivo PROTAC activity at CRBN/AR in male NOD SCID mouse model xenografted with human LNCaP cells assessed as reduction in androgen receptor level in tumor at 20 mg/kg, po administered daily for 26 days by Western blot analysis; assay type: functional, organism-based; conditions: time 26.0 day
[20] = Toxicity in male NOD SCID mouse model xenografted with human LNCaP cells assessed as body weight loss at 20 mg/kg, po administered daily for 26 days; assay type: organism-based; conditions: in vivo, 624 h, time 26 day
[21] = target: T1, Protein cereblon/Androgen receptor; assay: PROTAC activity at CRBN/AR in human 22Rv1 cells assessed as decrease in TMPRSS2 protein level incubated for 24 hrs by Western blot analysis; assay type: cell-based; conditions: dose 1-10 nM
[22] = target: T2, Protein cereblon/Eukaryotic peptide chain release factor GTP-binding subunit ERF3A; assay: Molecular glue activity at CRBN/GSPT1 in human 22Rv1 cells assessed as induction of GSPT1 degradation at 50 nM preincubated with MG132 followed by compound addition and measured after 12 hrs by Western blot analysis; assay type: cell-based
[23] = target: T2, Protein cereblon/Eukaryotic peptide chain release factor GTP-binding subunit ERF3A; assay: Molecular glue activity at CRBN/GSPT1 in human 22Rv1 cells assessed as induction of GSPT1 degradation by measuring maximal efficacy incubated for 24 hrs by Western blot analysis relative to control; assay type: cell-based
[24] = Antiproliferative activity against human Enzalutamide-resistant LNCaP cells assessed as cell growth inhibition incubated for 72 hrs by Celltiter-lumi luminescent cell viability assay; assay type: functional, cell-based
[25] = target: T1, Protein cereblon/Androgen receptor; assay: PROTAC activity at CRBN/AR in human 22Rv1 cells assessed as induction of AR degradation at 20 nM incubated for 24 hrs by Western blot analysis (reference value: 0 %); assay type: cell-based
[26] = target: T1, Protein cereblon/Androgen receptor; assay: PROTAC activity at CRBN/AR in human 22Rv1 cells assessed as decrease in TMPRSS2 mRNA level at 1 to 3 nM incubated for 24 hrs by qRT-PCR analysis; assay type: cell-based; conditions: dose 1-3 nM

In the case of COc1ccc(C(C)(C)c2cc(Cl)c(OCC3CCN(C(=O)CCCCCNc4ccc5c(c4)C(=O)N(C4CCC(=O)NC4=O)C5=O)CC3)c(C#N)c2)cc1 (stereo not drawn), the Activity [1] is reported as “inactive”, the Emax [2] is reported as 82.5% and the Activity [3] is reported as 81.3%. The Activity [4] was “Active”, the Activity [5] was “inactive” and the Activity [6] was 98.6%. The Activity [7] was “inactive”, the Activity (22Rv1) was “inactive” and the Activity [8] was “Active”. It also gave an Activity (CWR22R) of 58.9%, an IC50 [9] of 6.99 nM and an Activity [10] of 89.4%. The Activity [11] was 49%, the Activity [12] was 91.4% and the Activity [13] was 21.8%. For the same compound, the Activity [14] was “Dose-dependent-effect”, the Activity [15] was “inactive” and the Activity [16] was “inactive”. For the same compound, the Activity [17] was “Time-dependent-effect”, the half-life [18] was 54 min and the Activity [19] was “Active”. For the same compound, the Activity [20] was “Non-toxic”, the Activity [21] was “Dose-dependent-effect” and the Activity [22] was “inactive”. It also gave an Emax [23] of 94.2%, an IC50 [24] of 25.1 nM and an Activity [25] of 94.1%. The Activity [26] was “Active”.
